Measured values published in the Kinase Knowledgebase extract (Sharma et al. 2016).
In brackets after ≈: the same amount, converted by molar mass.

Biological target: EGFR (UniProt P00533)
Sequence (P00533 whole entry, looked up): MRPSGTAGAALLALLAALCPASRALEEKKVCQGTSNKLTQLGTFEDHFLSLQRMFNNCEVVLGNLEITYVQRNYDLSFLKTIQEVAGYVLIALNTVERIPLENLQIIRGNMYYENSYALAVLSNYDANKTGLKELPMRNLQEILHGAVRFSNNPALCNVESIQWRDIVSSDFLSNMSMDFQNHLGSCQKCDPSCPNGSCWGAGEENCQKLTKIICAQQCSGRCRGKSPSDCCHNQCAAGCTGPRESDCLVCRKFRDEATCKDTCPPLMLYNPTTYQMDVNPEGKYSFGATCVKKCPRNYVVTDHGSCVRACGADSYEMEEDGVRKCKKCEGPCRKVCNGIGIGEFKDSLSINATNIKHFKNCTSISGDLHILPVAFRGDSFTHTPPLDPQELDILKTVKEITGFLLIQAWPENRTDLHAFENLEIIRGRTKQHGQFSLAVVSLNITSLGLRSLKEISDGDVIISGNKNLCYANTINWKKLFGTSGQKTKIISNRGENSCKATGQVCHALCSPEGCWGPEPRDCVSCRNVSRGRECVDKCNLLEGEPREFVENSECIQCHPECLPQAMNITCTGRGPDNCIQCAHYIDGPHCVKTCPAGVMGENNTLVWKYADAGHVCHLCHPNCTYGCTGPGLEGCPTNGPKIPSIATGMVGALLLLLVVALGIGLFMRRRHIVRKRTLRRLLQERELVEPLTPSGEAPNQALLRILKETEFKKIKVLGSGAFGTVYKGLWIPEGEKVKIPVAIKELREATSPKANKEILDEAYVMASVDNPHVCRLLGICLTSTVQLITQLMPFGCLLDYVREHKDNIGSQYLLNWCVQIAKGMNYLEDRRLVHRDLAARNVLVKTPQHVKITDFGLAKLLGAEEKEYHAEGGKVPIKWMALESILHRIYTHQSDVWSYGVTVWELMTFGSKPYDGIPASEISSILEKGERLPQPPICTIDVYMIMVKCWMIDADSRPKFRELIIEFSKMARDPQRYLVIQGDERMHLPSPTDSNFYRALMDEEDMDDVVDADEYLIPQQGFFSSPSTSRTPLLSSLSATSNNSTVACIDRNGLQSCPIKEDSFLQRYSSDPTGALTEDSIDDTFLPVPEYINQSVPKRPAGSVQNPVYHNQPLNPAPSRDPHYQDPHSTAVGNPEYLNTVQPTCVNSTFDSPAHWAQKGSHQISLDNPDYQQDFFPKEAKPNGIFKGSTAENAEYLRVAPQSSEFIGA

IC50 | Structure (SMILES)
> 4.5 µg/mL | COc1cc(Nc2ncnc(-n3c(N)nc4ccccc43)n2)cc(OCCN2CCOCC2)c1OC
> 4.5 µg/mL | COc1cc(Nc2ncnc(-c3cccnc3NC3CCCCC3)n2)cc(OC)c1OC
0.4 to 2.4 µg/mL (≈ 0.916 to 5.5 µM) | COc1cc(Nc2ncnc(Nc3ccc(N4CCCCC4)cc3)n2)cc(OC)c1OC
> 4.5 µg/mL | COc1cc(Nc2ncnc(-n3c(Nc4ccc(C)cc4)nc4ccccc43)n2)cc(OC)c1OC
> 4.5 µg/mL | COc1cc(Nc2ncnc(-c3cccnc3Nc3cccc(C#N)c3)n2)cc(OC)c1OC
> 4.5 µg/mL | COC(=O)c1cccc(Nc2ncnc(-n3c(NCc4ccc(OC)cc4)nc4ccccc43)n2)c1
> 4.5 µg/mL | COc1cc(Nc2ncnc(-c3cccc(Cl)c3)n2)cc(OC)c1OC
0.4 to 2.4 µg/mL (≈ 0.791 to 4.75 µM) | COc1ccc(CNc2nc3ccccc3n2-c2ncnc(Nc3cccc(Cc4nnn[nH]4)c3)n2)cc1
< 0.4 µg/mL | N#CCc1ccc(Nc2ncnc(Nc3ccc4c(cnn4Cc4ccccc4)c3)n2)cc1
2.4 to 3.5 µg/mL (≈ 5.77 to 8.42 µM) | COc1cc(CNc2ncnc(N(C)c3cccc(Cl)c3)n2)cc(OC)c1OC
> 4.5 µg/mL | COc1cc(Nc2ncnc(Nc3ccc4c(c3)Cc3ccccc3-4)n2)cc(OC)c1OC
> 4.5 µg/mL | COCCNc1ncnc(Nc2cc(-c3ccc(C(=O)OC)cc3)n[nH]2)n1
> 4.5 µg/mL | COc1cc(Nc2ncnc(-n3c(N)nc4ccccc43)n2)cc(OC)c1OCCN1CCOCC1
0.4 to 2.4 µg/mL (≈ 0.89 to 5.34 µM) | COc1ccc(-c2cc(Nc3ncnc(Nc4cc(OC)c(OC)c(OC)c4)n3)[nH]n2)cc1
< 0.4 µg/mL | O=C(O)Cc1cccc(Nc2ncnc(-n3c(NCc4ccccc4)nc4ccccc43)n2)c1
0.4 to 2.4 µg/mL (≈ 1.01 to 6.03 µM) | CN(c1cccc(Cl)c1)c1ncnc(Nc2ccc(F)c(C(F)(F)F)c2)n1
> 4.5 µg/mL | COc1cc(Nc2ncnc(-n3cc(CCO)c4ccccc43)n2)cc(OC)c1OC
0.4 to 2.4 µg/mL (≈ 0.88 to 5.28 µM) | COC(=O)c1ccc(-c2cc(Nc3ncnc(NCCc4c[nH]c5ccccc45)n3)[nH]n2)cc1
0.4 to 2.4 µg/mL (≈ 1.11 to 6.68 µM) | COc1cccc(Nc2ncnc(Nc3cc(-c4ccccc4)n[nH]3)n2)c1
0.4 to 2.4 µg/mL (≈ 1.13 to 6.79 µM) | C#Cc1cccc(Nc2ncnc(Nc3cc(-c4ccccc4)n[nH]3)n2)c1
> 4.5 µg/mL | COc1cc(Nc2ncnc(-c3cccnc3NC(C)C)n2)cc(OC)c1OC
> 4.5 µg/mL | COc1ccc(Nc2ncnc(-c3ccccc3)n2)cc1
> 4.5 µg/mL | COc1cc(Nc2ncnc(-n3ccc4c(OC)cccc43)n2)cc(OC)c1OC
> 4.5 µg/mL | CC(C)Nc1ncccc1-c1ncnc(Nc2cccc(CC(=O)O)c2)n1
> 4.5 µg/mL | COc1cc(Nc2ncnc(-c3cccnc3Nc3ccc(C(F)(F)F)cc3)n2)cc(OC)c1OC
> 4.5 µg/mL | COCCOc1ccc(Nc2ncnc(-c3ccccc3)n2)cc1
> 4.5 µg/mL | COc1ccc(CNc2nc3ccccc3n2-c2ncnc(Nc3cccc(C(=O)O)c3)n2)cc1

IC50 | Structure (SMILES)
2.4 to 3.5 µg/mL (≈ 4.89 to 7.13 µM) | COc1cc(Nc2ncnc(-n3c(NCc4nccs4)nc4ccccc43)n2)cc(OC)c1OC
> 4.5 µg/mL | COc1cc(Nc2ncnc(-c3cccnc3NC(C)C)n2)ccc1NC(=O)CCCN1CCNCC1
2.4 to 3.5 µg/mL (≈ 6.92 to 10.1 µM) | CN(c1cccc(Cl)c1)c1ncnc(NCCN2CCCCC2)n1
> 4.5 µg/mL | NC(=O)c1ccc(Nc2ncnc(-n3c(=O)[nH]c4ccccc43)n2)cc1
0.4 to 2.4 µg/mL (≈ 1.01 to 6.07 µM) | COc1cc(Nc2ncnc(-n3c(=O)oc4ccccc43)n2)cc(OC)c1OC
> 4.5 µg/mL | COc1cc(Nc2ncnc(-n3nc(-c4ccccc4)cc3N)n2)cc(OC)c1OC
> 4.5 µg/mL | O=c1[nH]c2ccccc2n1-c1ncnc(Nc2ccccn2)n1
< 0.4 µg/mL | Cc1ccc2c(c1)CCCN2c1ncnc(Nc2ccc3c(c2)C(=O)OC3)n1
> 4.5 µg/mL | NC(=O)c1cccc(Nc2ncnc(-c3ccccc3)n2)c1
> 4.5 µg/mL | CN(c1cccc(Cl)c1)c1ncnc(Nc2ccc(Cl)c(Cl)c2)n1
> 4.5 µg/mL | COc1ccc(Nc2ncnc(NCc3ccc(C)c(Cl)c3)n2)cc1OC
> 4.5 µg/mL | O=C(Nc1ccc(Nc2ncnc(-n3c(=O)[nH]c4ccccc43)n2)cc1)O[C@@H]1CCOC1
> 4.5 µg/mL | CCN(CC)CCN(C)c1ncnc(Nc2ccc(OC)c(OC)c2)n1
> 4.5 µg/mL | COC(=O)c1ccc(N(C)c2ncnc(Nc3ccc(OC)c(OC)c3)n2)cc1
> 4.5 µg/mL | COc1cc(Nc2ncnc(-c3ccnc(NCCCO)c3)n2)cc(OC)c1OC
3.5 to 4.5 µg/mL (≈ 8.78 to 11.3 µM) | COc1ccc(-c2ncnc(Nc3cc(OC)c(OC)c(OC)c3)n2)cc1OC
> 4.5 µg/mL | COc1cc(Nc2ncnc(Nc3nc4ccccc4s3)n2)cc(OC)c1OC
> 4.5 µg/mL | COc1cc(Nc2ncnc(-n3c(N)nc4cc(Cl)ccc43)n2)cc(OC)c1OC.COc1cc(Nc2ncnc(-n3c(N)nc4ccc(Cl)cc43)n2)cc(OC)c1OC
0.4 to 2.4 µg/mL (≈ 1.01 to 6.04 µM) | COc1cc(Nc2ncnc(N[C@H](CO)c3ccccc3)n2)cc(OC)c1OC
> 4.5 µg/mL | c1ccc(CCNc2ncnc(Nc3ccc4c(cnn4Cc4ccccc4)c3)n2)cc1
> 4.5 µg/mL | NCCCNc1ncnc(-c2ccccc2)n1
< 0.4 µg/mL | COc1cc(Nc2ncnc(Nc3ccccc3F)n2)cc(OC)c1OC
> 4.5 µg/mL | COc1cc(Nc2ncnc(Nc3[nH]ncc3-c3cccc(Cl)c3)n2)cc(OC)c1OC
> 4.5 µg/mL | COc1cc(Nc2ncnc(N3CCc4cc([N+](=O)[O-])ccc43)n2)cc(OC)c1OC
2.4 to 3.5 µg/mL (≈ 5.61 to 8.18 µM) | COc1cc(Nc2ncnc(-c3c(O)[nH]c4ccc(Cl)cc34)n2)cc(OC)c1OC
> 4.5 µg/mL | Nc1nc2ccccc2n1-c1ncnc(Nc2cccc(CC(=O)O)c2)n1
3.5 to 4.5 µg/mL (≈ 6.22 to 8 µM) | COc1cc(Nc2ncnc(-n3c(NCc4cccc(Br)c4)nc4ccccc43)n2)cc(OC)c1OC

IC50 | Structure (SMILES)
< 0.4 µg/mL | COc1ccc(Nc2ncnc(N(C)c3ccc(Cl)c(Cl)c3)n2)cc1OC
> 4.5 µg/mL | COc1cc(Nc2ncnc(N3CCOCC3)n2)cc(OC)c1OC
> 4.5 µg/mL | CN(c1ccc(F)c(Cl)c1)c1ncnc(Nc2cccc(Br)c2)n1
> 4.5 µg/mL | Fc1cccc(Nc2ncnc(-c3cccs3)n2)c1
0.4 to 2.4 µg/mL (≈ 1.21 to 7.24 µM) | CCc1cccc(Nc2ncnc(-n3c(N)nc4ccccc43)n2)c1
> 4.5 µg/mL | COc1cc(Nc2ncnc(-n3c(N)nc4cc([N+](=O)[O-])ccc43)n2)cc(OC)c1OC.COc1cc(Nc2ncnc(-n3c(N)nc4ccc([N+](=O)[O-])cc43)n2)cc(OC)c1OC
< 0.4 µg/mL | O=S(=O)(O)c1cccc(Nc2ncnc(Nc3cc(-c4ccco4)[nH]n3)n2)c1
> 4.5 µg/mL | COc1cc(Nc2ncnc(-n3c(N)nc4ccccc43)n2)cc(OC)c1OC
< 0.4 µg/mL | CCc1ccc(Nc2nc3ccccc3n2-c2ncnc(Nc3cc(OC)c(OC)c(OC)c3)n2)cc1
0.4 to 2.4 µg/mL (≈ 1.22 to 7.31 µM) | C#Cc1cccc(Nc2ncnc(-n3c(=O)[nH]c4ccccc43)n2)c1
< 0.4 µg/mL | COc1cc(Nc2ncnc(Nc3cccc4ccccc34)n2)cc(OC)c1OC
> 4.5 µg/mL | COc1cc(Nc2ncnc(NN3CCCC3)n2)cc(OC)c1OC
> 4.5 µg/mL | COc1cc(Nc2ncnc(-n3ccc4ccccc43)n2)cc(OC)c1OC
> 4.5 µg/mL | COC(=O)c1ccc(Nc2ncnc(Nc3cc(-c4ccco4)n[nH]3)n2)cc1
< 0.4 µg/mL | COc1cc(Nc2ncnc(Nc3cccc(C)c3)n2)cc(OC)c1OC
< 0.4 µg/mL | COc1ccc(N(C)c2ncnc(Nc3ccc(OC)c(OC)c3)n2)cc1
> 4.5 µg/mL | COc1cc(Nc2ncnc(-n3c(N)nc4ccccc43)n2)cc(OC)c1
> 4.5 µg/mL | N#Cc1cccc(Nc2ncnc(-n3c(=O)[nH]c4ccccc43)n2)c1
2.4 to 3.5 µg/mL (≈ 4.92 to 7.18 µM) | COc1cc(Nc2ncnc(-n3c(Nc4cccc(F)c4)nc4ccccc43)n2)cc(OC)c1OC
> 4.5 µg/mL | COc1cc(Nc2ncnc(Oc3ccc(OCc4ccccc4)cc3)n2)cc(OC)c1OC
> 4.5 µg/mL | c1ccc(-c2ncnc(Nc3ccc(OCCCN4CCOCC4)cc3)n2)cc1
> 4.5 µg/mL | COc1ccc(CNc2ncnc(Nc3cc(OC)c(OC)c(OC)c3)n2)cc1
0.4 to 2.4 µg/mL (≈ 0.982 to 5.89 µM) | COc1cc(Nc2ncnc(Nc3ccc4nn(C)cc4c3)n2)cc(OC)c1OC
> 4.5 µg/mL | NC(=O)Cc1cccc(Nc2ncnc(-n3c(N)nc4ccccc43)n2)c1
> 4.5 µg/mL | O=c1[nH]c2ccccc2n1-c1ncnc(Nc2ccc3[nH]ncc3c2)n1
> 4.5 µg/mL | COc1ccc(Nc2ncnc(NCCCN3CCN(C)CC3)n2)cc1OC
> 4.5 µg/mL | CC(=O)NS(=O)(=O)c1ccc(Nc2ncnc(-n3c(=O)[nH]c4ccccc43)n2)cc1

IC50 | Structure (SMILES)
2.4 to 3.5 µg/mL (≈ 5.72 to 8.34 µM) | COc1cc(Nc2ncnc(-n3ncc(-c4ccccc4)c3N)n2)cc(OC)c1OC
2.4 to 3.5 µg/mL (≈ 7.56 to 11 µM) | CN(c1ccccc1)c1ncnc(-n2c(N)nc3ccccc32)n1
0.4 to 2.4 µg/mL (≈ 1.08 to 6.5 µM) | COc1cc(Nc2ncnc(Nc3ccc(O)cc3)n2)cc(OC)c1OC
> 4.5 µg/mL | Oc1ccc(Nc2ncnc(-c3ccccc3)n2)cc1
> 4.5 µg/mL | COC(=O)c1ccc(-c2cc(Nc3ncnc(Nc4cccc(C(N)=O)c4)n3)[nH]n2)cc1
2.4 to 3.5 µg/mL (≈ 6.19 to 9.03 µM) | CC(C)Nc1ncccc1-c1ncnc(Nc2cccc(Cn3ccnn3)c2)n1
> 4.5 µg/mL | COc1cc(Nc2ncnc(-n3c(NCc4ccccc4F)nc4ccccc43)n2)cc(OC)c1OC
> 4.5 µg/mL | COc1cc(Nc2ncnc(-n3c(NCc4ccc(Br)cc4)nc4ccccc43)n2)cc(OC)c1OC
> 4.5 µg/mL | COc1ccc(Nc2ncnc(-n3cccc3)n2)c(OC)c1
< 0.4 µg/mL | COc1cc(Nc2ncnc(N(CCO)c3ccccc3)n2)cc(OC)c1OC
2.4 to 3.5 µg/mL (≈ 6.33 to 9.23 µM) | COc1ccc(Nc2ncnc(Nc3ccc4c(c3)C(=O)OC4)n2)cc1OC
> 4.5 µg/mL | COc1cc(Nc2ncnc(NN3CCOCC3)n2)cc(OC)c1OC
3.5 to 4.5 µg/mL (≈ 9.85 to 12.7 µM) | O=c1[nH]c2ccccc2n1-c1ncnc(Nc2ccc3ncccc3c2)n1
> 4.5 µg/mL | COc1ccc2c(c1)c(CCN(C)C)cn2-c1ncnc(Nc2cc(OC)c(OC)c(OC)c2)n1
> 4.5 µg/mL | COc1ccc(Nc2nc3ccccc3n2-c2ncnc(Nc3cc(OC)c(OC)c(OC)c3)n2)cc1OC
> 4.5 µg/mL | FC(F)C(F)(F)Oc1cccc(Nc2ncnc(-c3ccnc(Cl)c3)n2)c1
> 4.5 µg/mL | COc1ccc(Nc2ncnc(N(C)c3ccc(S(=O)(=O)O)cc3)n2)cc1OC
> 4.5 µg/mL | COc1cc(Nc2ncnc(-n3c(=O)sc4ccccc43)n2)cc(OC)c1OC
> 4.5 µg/mL | CCC(O)CNc1ncnc(Nc2ccc(OC)c(OC)c2)n1 (stereo not given)
2.4 to 3.5 µg/mL (≈ 6.93 to 10.1 µM) | CN(C)c1ccc(Nc2ncnc(-n3c(N)nc4ccccc43)n2)cc1
2.4 to 3.5 µg/mL (≈ 5.11 to 7.45 µM) | COc1cc(Nc2ncnc(Nc3n[nH]c(Nc4ccc(Cl)cc4)n3)n2)cc(OC)c1OC
< 0.4 µg/mL | COc1cc(Nc2ncnc(N(C)c3cccc(Cl)c3)n2)cc(OC)c1OC
> 4.5 µg/mL | COc1ccc2c(c1)nc(NCc1ccccn1)n2-c1ncnc(Nc2cc(OC)c(OC)c(OC)c2)n1.COc1ccc2nc(NCc3ccccn3)n(-c3ncnc(Nc4cc(OC)c(OC)c(OC)c4)n3)c2c1
> 4.5 µg/mL | CC(=O)Nc1ccc(Nc2ncnc(-c3cccs3)n2)cc1
